According to patent US20170119683A1, “BIOPOLYMER-ENCAPSULATED GLYCOSYL TRANSFERASE INHIBITOR COMPOSITIONS AND METHODS FOR TREATING DIABETES AND CARDIAC INDICATIONS” (The Johns Hopkins University, priority 2014, published 2017):
Entries after “also recorded” stand apart in the source; their conditions may differ.

What was measured:
[1] = system: apoE -/- mice fed a high fat and high cholesterol (HFHC) diet; experiment: aortic histopathology and ultrasound imaging, atherosclerosis in apoE -/- mice fed HFHC diet; format: in vivo; conditions: FIG. 2B
[2] = system: adipocytes; experiment: TNF induced insulin resistance in adipocytes; format: cell-based; conditions: chronic exposure to low levels of TNF
Description: Additionally, adipocytes were made insulin resistant by chronic exposure to low levels of tumor necrosis factor (TNF). […] This latter patient population is estimated at 10 million in the US alone.

[3] = system: cultured human arterial cell monolayer; experiment: in vitro model of wounding in cultured arterial cell monolayer; format: cell-based
[4] = system: Apolipoprotein E-/- mice; experiment: Example 6: ox-LDL, GalT-V and amyloid-β (ELISA, Western) in ApoE-/- mice fed HFHC diet; format: in vivo
Description: Testing of the impact of D-PDMP in a mouse AD model and quantification of biomarkers in such studies was performed in the following manner. […] These mice were fed either a normal diet (control) or a high-fat high-cholesterol (HFHC) diet. While a subset of the mice fed the high-fat diet was retained as a placebo group, others were treated with 5 mg/kg (mpk) or 10 mpk of the D-PDMP drug. After euthanizing these animals, tissue and blood samples were stored for further biochemical analysis. For the quantification of the biomarkers, […] (ELISA) was used. For the measurement of ox-LDL, mouse serum was coated onto the bottom of a well. […] A secondary antibody was administered to that attached specifically to the primary antibody. This secondary antibody presented an attached reporter, allowing amounts of ox-LDL could be quantified. A substrate was bound to the reporter and fluoresced. […] ELISA was also employed for quantifying levels of GalT-V and amyloid-β, using different target-specific antibodies.

[5] = native, not encapsulated
[6] = in vivo; cited from earlier work
[7] = in vivo
[8] = 5 mpk and 10 mpk by injection, not biopolymer-encapsulated

SMILES: CCCCCCCCCC(=O)N[C@H](CN1CCOCC1)[C@H](O)c1ccccc1.Cl [D-PDMP, D-threo-1-phenyl-2-decanoylamino-3-morpholino-1-propanol]
- returning aortic intima-media thickness of the ascending aorta to control levels [1]: equally efficacious
- TNF induced impairment in insulin signaling [2]: reversed
- wound healing [3]: facilitated healing
- levels of GalT-V [4, 8]: dose-dependently decreased; also recorded: decreased levels
- levels of ox-LDL [4, 8]: dose-dependently decreased; also recorded: decreased levels
- amyloid-β levels ([4]; 5 mpk and 10 mpk by injection, not biopolymer-encapsulated, brain tissue): dose-dependently decreased; also recorded: reduction
- levels of atherosclerosis and Alzheimer's disease biomarkers ([4]; ApoE -/- model mice): markedly reduced
- residence time in the body of the mice [5]: about an hour
- half-life [6]: approximately 52 minutes
- toxicity [7]: no toxicity
